Measurements: US9738655B2, “Tetrahydroisoquinolines containing substituted azoles as factor XIa inhibitors” (BRISTOL-MYERS SQUIBB COMPANY, priority 2013, dated 2017)
Structures can show the parent of a compound that is named as a salt.

Assays:
[1] = molecular target: purified human plasma kallikrein (Homo sapiens (Human), UniProt P03952); assay: Plasma kallikrein enzyme inhibition assay (chromogenic substrate S-2302); format: biochemical; conditions: measured at 25° C. (no asterisk)
[2] = molecular target: purified human Factor XIa (Homo sapiens (Human), UniProt P03951); assay: Factor XIa enzyme inhibition assay (chromogenic substrate S-2366); conditions: read-out: Factor XIa Ki; measured at 25° C.
Sequence of purified human Factor XIa (P03951 388-625): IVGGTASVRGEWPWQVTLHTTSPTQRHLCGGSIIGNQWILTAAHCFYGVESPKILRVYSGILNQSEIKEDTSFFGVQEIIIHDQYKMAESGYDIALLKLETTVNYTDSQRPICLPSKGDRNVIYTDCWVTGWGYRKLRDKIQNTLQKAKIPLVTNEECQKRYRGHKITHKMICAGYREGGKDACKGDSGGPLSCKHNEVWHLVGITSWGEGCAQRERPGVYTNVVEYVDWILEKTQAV
Sequence of purified human Factor XIa (P03951 19-387 partner): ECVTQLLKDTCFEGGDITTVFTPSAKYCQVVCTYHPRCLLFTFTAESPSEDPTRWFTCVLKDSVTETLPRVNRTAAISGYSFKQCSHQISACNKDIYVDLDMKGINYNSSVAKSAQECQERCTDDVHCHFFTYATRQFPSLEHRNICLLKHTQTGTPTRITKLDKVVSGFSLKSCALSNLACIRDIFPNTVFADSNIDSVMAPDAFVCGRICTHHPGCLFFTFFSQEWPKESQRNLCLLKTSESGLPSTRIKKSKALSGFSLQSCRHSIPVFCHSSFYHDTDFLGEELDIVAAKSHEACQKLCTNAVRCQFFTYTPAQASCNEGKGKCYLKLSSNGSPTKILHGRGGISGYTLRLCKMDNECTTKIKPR

Sequence of purified human plasma kallikrein (P03952 391-638): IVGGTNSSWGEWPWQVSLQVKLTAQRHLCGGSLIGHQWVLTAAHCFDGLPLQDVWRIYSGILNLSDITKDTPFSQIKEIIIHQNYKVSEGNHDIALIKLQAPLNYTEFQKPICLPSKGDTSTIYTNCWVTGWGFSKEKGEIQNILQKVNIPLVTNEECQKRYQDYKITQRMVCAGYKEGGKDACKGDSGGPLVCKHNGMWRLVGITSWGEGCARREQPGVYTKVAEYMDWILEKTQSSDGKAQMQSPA
Sequence of purified human plasma kallikrein (P03952 20-390 partner): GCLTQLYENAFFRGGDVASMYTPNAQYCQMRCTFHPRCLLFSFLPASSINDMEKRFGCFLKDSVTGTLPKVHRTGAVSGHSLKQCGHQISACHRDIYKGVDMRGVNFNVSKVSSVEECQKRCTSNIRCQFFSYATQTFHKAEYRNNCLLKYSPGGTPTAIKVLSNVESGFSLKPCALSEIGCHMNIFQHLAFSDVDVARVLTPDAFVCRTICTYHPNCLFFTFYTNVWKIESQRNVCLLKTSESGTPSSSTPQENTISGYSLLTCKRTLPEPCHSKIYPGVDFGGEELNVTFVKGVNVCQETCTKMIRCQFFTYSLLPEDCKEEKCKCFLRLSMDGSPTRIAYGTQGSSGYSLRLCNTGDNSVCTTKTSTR

SMILES | Ki [1] | Ki [2]
O=C1CCC2(CCN(c3cccc4c3CCN(C(=O)c3cn(-c5cccc(Cl)c5F)nn3)C4C(=O)Nc3ccc(C(=O)O)cc3)CC2)O1 (centres unmarked) [Example 76, 4-(2-(1-(3-chloro-2-fluorophenyl)-1H-1,2,3-triazole-4-carbonyl)-5-(2-oxo-1-oxa-8-azaspiro[4.5]decan-8-yl)-1,2,3,4-tetrahydroisoquinoline-1-carboximido)benzoic acid, TFA] | 15.3 nM | < 5 nM
O=C(O)c1ccc(NC(=O)C2c3cccc(N4CCCCC4)c3CCN2C(=O)c2cn(-c3cccc(Cl)c3F)nn2)cc1 (centres unmarked) [Example 78, 4-(2-(1-(3-chloro-2-fluorophenyl)-1H-1,2,3-triazole-4-carbonyl)-5-(piperidin-1-yl)-1,2,3,4-tetrahydroisoquinoline-1-carboxamido)benzoic acid, TFA salt] | 36.1 nM | 9.16 nM
CN1CCN(c2cccc3c2CCN(C(=O)c2cn(-c4cccc(Cl)c4F)nn2)[C@H]3C(=O)Nc2ccc(C(=O)O)cc2)C(=O)C1 [Example 79, (R)-4-(2-(1-(3-chloro-2-fluorophenyl)-1H-1,2,3-triazole-4-carbonyl)-5-(4-methyl-2-oxopiperazin-1-yl)-1,2,3,4-tetrahydroisoquinoline-1-carboxamido)benzoic acid, TFA salt] | 719 nM | 114 nM
O=C(O)c1ccc(NC(=O)C2c3cccc(N4CCCCC4=O)c3CCN2C(=O)c2cn(-c3cccc(Cl)c3F)nn2)cc1 (centres unmarked) [Example 81, 4-(2-(1-(3-chloro-2-fluorophenyl)-1H-1,2,3-triazole-4-carbonyl)-5-(2-oxopiperidin-1-yl)-1,2,3,4-tetrahydroisoquinoline-1-carboxamido)benzoic acid] | 20.7 nM | < 5 nM
COC1CN(c2cccc3c2CCN(C(=O)c2cn(-c4cccc(Cl)c4F)nn2)C3C(=O)Nc2ccc(C(=O)O)cc2)C1 (centres unmarked) [Example 83, 4-(2-(1-(3-chloro-2-fluorophenyl)-1H-1,2,3-triazole-4-carbonyl)-5-(3-methoxyazetidin-1-yl)-1,2,3,4-tetrahydroisoquinoline-1-carboxamido)benzoic acid, TFA salt] | 12.1 nM | < 5 nM
O=C(O)c1ccc(NC(=O)[C@H]2c3cccc(N4CCOCC4)c3CCN2C(=O)c2cnn(-c3cccc(Cl)c3F)c2)cc1 [Example 88, (R)-4-(2-(1-(3-Chloro-2-fluorophenyl)-1H-pyrazole-4-carbonyl)-5-morpholino-1,2,3,4-tetrahydroisoquinoline-1-carboxamido)benzoic acid, TFA salt] | 2080 nM | 391 nM
O=C(O)c1ccc(NC(=O)[C@@H]2c3cccc(N4CCOCC4)c3CCN2C(=O)c2cnn(-c3cccc(Cl)c3F)c2)cc1 [Example 89, (S)-4-(2-(1-(3-Chloro-2-fluorophenyl)-1H-pyrazole-4-carbonyl)-5-morpholino-1,2,3,4-tetrahydroisoquinoline-1-carboxamido)benzoic acid, TFA salt] | 11.4 nM | < 5 nM
CN(C)C1CCN(c2cccc3c2CCN(C(=O)c2cnn(-c4cccc(Cl)c4F)c2)C3C(=O)Nc2ccc(OCC3CCCO3)cc2)CC1 (centres unmarked) [Example 95, 2-(1-(3-chloro-2-fluorophenyl)-1H-pyrazole-4-carbonyl)-5-(4-(dimethylamino)piperidin-1-yl)-N-(4-((tetrahydrofuran-2-yl)methoxy)phenyl)-1,2,3,4-tetrahydroisoquinoline-1-carboxamide, TFA salt] | 16.9 nM | 14.7 nM
CN(C)C1CCN(c2cccc3c2CCN(C(=O)c2cnn(-c4cccc(Cl)c4F)c2)C3C(=O)Nc2ccc(OC(F)F)cc2)CC1 (centres unmarked) [Example 96, 2-(1-(3-chloro-2-fluorophenyl)-1H-pyrazole-4-carbonyl)-N-(4-(difluoromethoxy)phenyl)-5-(4-(dimethylamino)piperidin-1-yl)-1,2,3,4-tetrahydroisoquinoline-1-carboxamide, TFA salt] | 34 nM | 20.3 nM
COc1ccc(NC(=O)C2c3cccc(N4CCC(N(C)C)CC4)c3CCN2C(=O)c2cnn(-c3cccc(Cl)c3F)c2)cc1 (centres unmarked) [Example 97, 2-(1-(3-chloro-2-fluorophenyl)-1H-pyrazole-4-carbonyl)-5-(4-(dimethylamino)piperidin-1-yl)-N-(4-methoxyphenyl)-1,2,3,4-tetrahydroisoquinoline-1-carboxamide, TFA salt] | 21.7 nM | 9.13 nM
CN(C)C1CCN(c2cccc3c2CCN(C(=O)c2cn(-c4cccc(Cl)c4F)nn2)[C@H]3C(=O)Nc2ccc(C(N)=O)cc2)CC1 [Example 100, (R)-N-(4-Carbamoylphenyl)-2-(1-(3-chloro-2-fluorophenyl)-1H-1,2,3-triazole-4-carbonyl)-5-(4-(dimethylamino)piperidin-1-yl)-1,2,3,4-tetrahydroisoquinoline-1-carboxamide, bis-TFA salt] | 494 nM | 289 nM
CN(C)C1CCN(c2cccc3c2CCN(C(=O)c2cn(-c4cccc(Cl)c4F)nn2)[C@H]3C(=O)Nc2ccc(-c3cn[nH]c3)cc2)CC1 [Example 103, (R)-N-(4-(1H-Pyrazol-4-yl)phenyl)-2-(1-(3-chloro-2-fluorophenyl)-1H-1,2,3-triazole-4-carbonyl)-5-(4-(dimethylamino)piperidin-1-yl)-1,2,3,4-tetrahydroisoquinoline-1-carboxamide, bis-TFA salt] | 34 nM | 17.9 nM

Now those with a lower Ki [1], led by results:

Ki [1] | Ki [2] | SMILES
7.96 nM | < 5 nM | O=C1CCC2(CCN(c3cccc4c3CCN(C(=O)c3cn(-c5cccc(Cl)c5F)cn3)C4C(=O)Nc3ccc(C(=O)O)cc3)CC2)O1 (centres unmarked) [Example 77, 4-(2-(1-(3-chloro-2-fluorophenyl)-1H-imidazole-4-carbonyl)-5-(2-oxo-1-oxa-8-azaspiro[4.5]decan-8-yl)-1,2,3,4-tetrahydroisoquinoline-1-carboxamido)benzoic acid, TFA salt]
6.37 nM | < 5 nM | CN1CCN(c2cccc3c2CCN(C(=O)c2cn(-c4cccc(Cl)c4F)nn2)[C@@H]3C(=O)Nc2ccc(C(=O)O)cc2)C(=O)C1 [Example 80, (S)-4-(2-(1-(3-chloro-2-fluorophenyl)-1H-1,2,3-triazole-4-carbonyl)-5-(4-methyl-2-oxopiprazin-1-yl)-1,2,3,4-tetrahydroisoquinoline-1-carboxamido)benzoic acid, HCl]
5.37 nM | < 5 nM | O=C(O)c1ccc(NC(=O)[C@@H]2c3cccc(N4CCOCC4)c3CCN2C(=O)c2cn(-c3cccc(Cl)c3F)nn2)cc1 [Example 90, (S)-4-(2-(1-(3-Chloro-2-fluorophenyl)-1H-1,2,3-triazole-4-carbonyl)-5-morpholino-1,2,3,4-tetrahydroisoquinoline-1-carboxamido)benzoic acid, TFA salt]
3.84 nM | < 5 nM | O=C(O)c1ccc(NC(=O)[C@@H]2c3cccc(N4CCOCC4)c3CCN2C(=O)c2cn(-c3cccc(Cl)c3F)cn2)cc1 [Example 91, (S)-4-(2-(1-(3-Chloro-2-fluorophenyl)-1H-imidazole-4-carbonyl)-5-morpholino-1,2,3,4-tetrahydroisoquinoline-1-carboxamido)benzoic acid, TFA salt]
5.6 nM | < 5 nM | O=C(O)c1ccc(NC(=O)C2c3cccc(N4CCC(N5CCCC5=O)CC4)c3CCN2C(=O)c2cn(-c3cccc(Cl)c3F)cn2)cc1 (centres unmarked) [Example 92, 4-(2-(1-(3-Chloro-2-fluorophenyl)-1H-imidazole-4-carbonyl)-5-(4-(2-oxopyrrolidin-1-yl)piperidin-1-yl)-1,2,3,4-tetrahydroisoquinoline-1-carboxamido)benzoic acid, TFA salt]
9.65 nM | 6.65 nM | CN(C)C1CCN(c2cccc3c2CCN(C(=O)c2cnn(-c4cccc(Cl)c4F)c2)C3C(=O)Nc2ccc(-c3ncco3)cc2)CC1 (centres unmarked) [Example 93, 2-(1-(3-Chloro-2-fluorophenyl)-1H-pyrazole-4-carbonyl)-5-(4-(dimethylamino)piperidin-1-yl)-N-(4-(oxazol-2-yl)phenyl)-1,2,3,4-tetrahydroisoquinoline-1-carboxamide, bis-TFA salt]
5.2 nM | 6.69 nM | Cc1nc(-c2ccc(NC(=O)C3c4cccc(N5CCC(N(C)C)CC5)c4CCN3C(=O)c3cn(-c4cccc(Cl)c4F)nn3)cc2)no1 (centres unmarked) [Example 98, 2-(1-(3-Chloro-2-fluorophenyl)-1H-1,2,3-triazole-4-carbonyl)-5-(4-(dimethylamino)piperidin-1-yl)-N-(4-(5-methyl-1,2,4-oxadiazol-3-yl)phenyl)-1,2,3,4-tetrahydroisoquinoline-1-carboxamide, bis-TFA salt]
2.74 nM | < 5 nM | CN(C)C1CCN(c2cccc3c2CCN(C(=O)c2cn(-c4cccc(Cl)c4F)nn2)C3C(=O)Nc2ccc(C(N)=O)cc2)CC1 (centres unmarked) [Example 99, N-(4-Carbamoylphenyl)-2-(1-(3-chloro-2-fluorophenyl)-1H-1,2,3-triazole-4-carbonyl)-5-(4-(dimethylamino)piperidin-1-yl)-1,2,3,4-tetrahydroisoquinoline-1-carboxamide, bis-TFA salt]
1.75 nM | < 5 nM | CN(C)C1CCN(c2cccc3c2CCN(C(=O)c2cn(-c4cccc(Cl)c4F)nn2)[C@@H]3C(=O)Nc2ccc(C(N)=O)cc2)CC1 [Example 101, (S)-N-(4-Carbamoylphenyl)-2-(1-(3-chloro-2-fluorophenyl)-1H-1,2,3-triazole-4-carbonyl)-5-(4-(dimethylamino)piperidin-1-yl)-1,2,3,4-tetrahydroisoquinoline-1-carboxamide, bis-TFA salt]
1.39 nM | < 5 nM | CN(C)C1CCN(c2cccc3c2CCN(C(=O)c2cn(-c4cccc(Cl)c4F)nn2)C3C(=O)Nc2ccc(-c3cn[nH]c3)cc2)CC1 (centres unmarked) [Example 102, N-(4-(1H-Pyrazol-4-yl)phenyl)-2-(1-(3-chloro-2-fluorophenyl)-1H-1,2,3-triazole-4-carbonyl)-5-(4-(dimethylamino)piperidin-1-yl)-1,2,3,4-tetrahydroisoquinoline-1-carboxamide, bis-TFA salt]
